Source: paper PMC8476755 (Frontiers in Chemistry, 2021)
Residue numbers refer to the chain shown, from its start.

Assays:
[1] = test system: four human GABA transporters (GATs); test: [3H]GABA uptake assay, single concentration screening at the four human GATs; format: cell-based; conditions: 100 µM test compound, n = 2
Procedure: (§1) Based on this finding, only 2 and bicyclo-GABA were further investigated pharmacologically.
(§2) (D–E) Gaddum-Schild analysis of bicyclo-GABA, yielding a Schild slope of 1.02 indicative of competitive inhibition with a calculated K B of 0.47 µM (n = 4). (F) Characterization of bicyclo-GABA and 2 at α1β2γ2 GABAA receptors by use of the FMP assay. […] Data are presented as means ± S.E.M.
(§3) Briefly, cells were seeded in white 96-well plates (White Opaque Tissue Culture (TC) plated 96-well Microplate) pre-coated with PDL. Medium was removed on the following day and cells washed with 100 µL/well assay buffer (HBSS supplemented with 20 mM HEPES, 1 mM CaCl2 and 1 mM MgCl2, pH 7.4). […] The cells were washed 3 times with 100 µL/well ice-cold assay buffer, 150 µL/well MicroScint™20 was subsequently added before the plate was shaken for at least 1 h. The plate was counted in a Packard TopCounter microplate scintillation counter (PerkinElmer) for 3 min per well. Typical counts per minute for the different GATs were in the range of: wt hBGT1 (100–4,000), BGT1 Q299 (100–1,000), hBGT E52Y (150–500), BGT1 E52A (150–8,000), BGT1 E52A + Q299L (150–500), wt GAT3 (200–8,000), GAT3 L314Q (100–1,500), wt GAT1 (100–10,000) and wt GAT2 (150–7,500). […] Data presented is the pooled data of at least three independent experiments with three technical replicates if not stated otherwise in figure legends. Concentration–response curves were fitted by non-linear regression to the sigmoidal concentration-response model with GraphPad Prism (version 9.0.0, GraphPad Software, San Diego, CA, United States) as described ([Lie et al., 2020]).

BGT1 [2] = test system: BGT1; parameters: method as in Kobayashi et al., 2014; conditions: ref Kobayashi et al., 2014, cited from earlier work
BGT1 E52A = target: T1, BGT1 E52A (Homo sapiens, UniProt P48065, E52A); test: [3H]GABA uptake assay, transient expression in tsA201 cells; format: cell-based; conditions: BGT1 E52A vs BGT1 wt
T1 construct: expressed in transfected cells; host or cells: tsA201 (transformed HEK293), transient
T1 sequence (P48065 1-614 E52A): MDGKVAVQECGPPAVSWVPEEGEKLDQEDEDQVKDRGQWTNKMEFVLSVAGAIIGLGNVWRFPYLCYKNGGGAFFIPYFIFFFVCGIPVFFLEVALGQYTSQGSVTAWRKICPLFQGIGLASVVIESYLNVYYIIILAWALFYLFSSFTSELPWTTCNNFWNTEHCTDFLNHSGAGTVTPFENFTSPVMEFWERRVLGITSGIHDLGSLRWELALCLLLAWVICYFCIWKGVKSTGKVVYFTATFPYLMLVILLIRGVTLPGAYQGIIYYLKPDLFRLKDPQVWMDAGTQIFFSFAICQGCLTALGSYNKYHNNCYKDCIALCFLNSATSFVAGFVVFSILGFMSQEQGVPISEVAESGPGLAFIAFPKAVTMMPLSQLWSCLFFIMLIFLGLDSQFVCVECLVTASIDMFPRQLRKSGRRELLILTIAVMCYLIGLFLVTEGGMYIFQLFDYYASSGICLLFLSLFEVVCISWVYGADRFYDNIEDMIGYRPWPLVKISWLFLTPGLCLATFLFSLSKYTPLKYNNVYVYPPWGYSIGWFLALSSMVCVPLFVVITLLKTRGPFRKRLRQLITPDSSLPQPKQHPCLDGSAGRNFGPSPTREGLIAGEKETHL
Procedure: The residue Q299 in human BGT1 corresponds to leucine in all other GATs (human, rat, mouse), while E52 corresponds to tyrosine in GAT1 (human, rat, mouse) but is conserved among GAT2, GAT3 and BGT1 (human, rat, mouse) (Figure 6A) ([Kickinger et al., 2019]).
(§4) The tsA201 cell line (a transformed HEK293 cell line), the Flp-In CHO cell lines stably expressing human (h) GATs and the HEK293 cell line stably expressing human α1β2γ2 GABAA receptors have been described previously and were cultured accordingly ([Al-Khawaja et al., 2014]; [Falk-Petersen et al., 2020]). The tsA201 cell line used for transient expression of hGATs was transfected with DNA constructs (8 μg per 10 cm plate) using 40 μL PolyFect transfection reagent according to the manufacturer’s protocol (Qiagen).
as §3, with “well.” for “well. Typical counts per minute for the different GATs were in the range of: wt hBGT1 (100–4,000), BGT1 Q299 (100–1,000), hBGT E52Y (150–500), BGT1 E52A (150–8,000), BGT1 E52A + Q299L (150–500), wt GAT3 (200–8,000), GAT3 L314Q (100–1,500), wt GAT1 (100–10,000) and wt GAT2 (150–7,500).”

GAT3 L314Q = target: T2, GAT3 L314Q (Homo sapiens, UniProt P48066, L314Q); test: as above; format: cell-based; conditions: GAT3 L314Q, tsA201 cells; read-out: pIC50 ± S.E.M. (converted)
T2 construct: expressed in transfected cells; host or cells: tsA201 (transformed HEK293), transient
T2 sequence (P48066 1-632 L314Q): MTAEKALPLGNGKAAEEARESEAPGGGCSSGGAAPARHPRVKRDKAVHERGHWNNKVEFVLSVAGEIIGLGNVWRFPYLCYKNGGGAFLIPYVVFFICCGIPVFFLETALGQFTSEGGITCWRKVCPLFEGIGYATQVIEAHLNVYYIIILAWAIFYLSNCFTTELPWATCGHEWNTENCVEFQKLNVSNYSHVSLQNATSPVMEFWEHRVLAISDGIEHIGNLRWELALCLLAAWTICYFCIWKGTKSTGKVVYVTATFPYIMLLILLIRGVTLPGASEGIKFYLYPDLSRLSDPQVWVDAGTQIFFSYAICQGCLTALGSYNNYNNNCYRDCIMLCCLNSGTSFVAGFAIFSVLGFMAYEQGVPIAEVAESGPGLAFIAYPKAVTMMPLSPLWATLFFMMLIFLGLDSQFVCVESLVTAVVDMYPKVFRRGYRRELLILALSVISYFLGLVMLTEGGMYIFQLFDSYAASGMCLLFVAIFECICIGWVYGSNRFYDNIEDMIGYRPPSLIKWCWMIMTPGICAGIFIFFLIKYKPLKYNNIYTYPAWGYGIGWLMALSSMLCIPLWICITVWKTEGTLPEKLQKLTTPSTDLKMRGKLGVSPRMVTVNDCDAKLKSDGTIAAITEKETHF
Text: According to the docking and MD results, the sidechains of Q299 and E52 were identified to form crucial interactions with the protonated nitrogen of both compounds. The residue Q299 in human BGT1 corresponds to leucine in all other GATs (human, rat, mouse), while E52 corresponds to tyrosine in GAT1 (human, rat, mouse) but is conserved among GAT2, GAT3 and BGT1 (human, rat, mouse) (Figure 6A) ([Kickinger et al., 2019]). Thus, we engineered the corresponding mutants Q299L and E52Y in human BGT1 and predicted that the introduction of these mutations would lead to decreased activity of both bicyclo-GABA and 2 due to the loss of essential hydrogen bond interactions. Furthermore, we wanted to test the double mutant E52Y + Q299L. However, in a previous study this mutant was proven non-functional ([Kickinger et al., 2020]). Instead, we generated the double mutant E52A + Q299L as well as the single mutant E52A. For these mutants we predicted decreased activity. Lastly, the reciprocal mutation to BGT1 Q299L was created in GAT3 (L314Q), ideally expecting a gain-of-function.
FIGURE 6 (A) Pocket alignment of the orthosteric site of the four GAT subtypes colored according to the default ClustalX color scheme ([Larkin et al., 2007]). The pocket was defined as all corresponding GAT residues (15 in total) that are within a distance of 4.5 Å of the co-crystallized ligand leucine in the homologous LeuT crystal structure (PDB ID 2A65) ([Yamashita et al., 2005]) according to the alignment by Kickinger et al. ([Kickinger et al., 2019]). The mutated residues in BGT1 and the corresponding residues in GAT1-3 are indicated by a red box. The numbering of all residues within the orthosteric pocket can be found in the Supplementary Table S1.
as §4, with “(Qiagen). All DNA constructs used have been described previously: wt hBGT1, wt GAT3 ([Kvist et al., 2009]), BGT1 Q299, GAT3 L314Q ([Jørgensen et al., 2017]), hBGT E52Y, BGT1 E52A and BGT1 E52A + Q299L ([Kickinger et al., 2020]).” for “(Qiagen).”
as §3

BGT1 [3] = target: T3, BGT1 (Homo sapiens, UniProt P48065); test: [3H]GABA uptake assay, single concentration screening; format: cell-based; conditions: read-out: Percentage inhibition of [3H]GABA uptake at BGT1, 100 µM test compound; n = 2
T3 construct: expressed in transfected cells
T3 sequence (P48065 1-614): T1 sequence (P48065 1-614 E52A) with A52E
Procedure: as §1, §2
as §3, with “Concentration–response curves were fitted by non-linear regression to the sigmoidal concentration-response model with GraphPad Prism (version 9.0.0, GraphPad Software, San Diego, CA, United States) as described ([Lie et al., 2020]).” left out

**Q.** With `CN(C)[C@@]12CC[C@H](C(=O)O)[C@@H]1C2` [compound 3] as the compound, how does the “Percentage inhibition of [3H]GABA uptake at any of the GATs” value (“Percentage inhibition of [3H]GABA uptake” for short) [1] read?
**A.** Its value is less than 15%.

**Q.** Which “Less potent than bicyclo-GABA” value (BGT1 [2]) does the source give for `NC1CC1CC(=O)O` [compound 1, (2S,3R)-4-amino-3,4-methanobutyric acid] here?
**A.** Its value is 9 times.

**Q.** And the “Higher activity for BGT1 than GAT3” value (BGT1 [2]; subtype-selectivity BGT1 vs GAT3)?
**A.** Its value is “three times higher activity”.

**Q.** For `NC1CC1(CC(=O)O)c1ccccc1` (centres unmarked) [4c], which “Percentage inhibition of [3H]GABA uptake” value [1] is on record?
**A.** The value was less than 15%.

**Q.** With `CCC1(CC(=O)O)CC1N` (centres unmarked) [4b] as the compound, how does the “Percentage inhibition of [3H]GABA uptake” value [1] read?
**A.** Its value is less than 15%.

**Q.** Which “Increase in activity compared to wildtype” value (BGT1 E52A) does the source give for `NCCCC(=O)O` [GABA, γ-aminobutyric acid] here?
**A.** The value was “not significantly altered”.

**Q.** What about the IC50 (GAT3 L314Q) of the same compound?
**A.** The IC50 was 5.01 µM.

**Q.** With `CC1(CC(=O)O)CC1N` (centres unmarked) [4a] as the compound, how does the inhibition at 100 µM (BGT1 [3]) read?
**A.** Its inhibition at 100 µM is 68%.
